Assay results reported in US4275057A (The United States of America as represented by the …, priority 1980, dated 1981).

What was measured:
adenosine deaminase = conditions: qualitative statement; cited from earlier work
[1] = target: T1, Mouse kidney cytidine deaminase (Mus musculus, UniProt P56389); assay: Cytidine deaminase inhibition, mouse kidney enzyme; format: biochemical
T1 construct: isolated and partially purified from mouse kidney acetone powder; tissue Sigma Chemical Co; host or cells: mouse kidney (acetone powder, buffer extract, ammonium sulfate fractionation)

[2] = target: T2, Cytidine deaminase from human liver (Homo sapiens, UniProt P32320); assay: Cytidine deaminase inhibition, human liver enzyme; format: biochemical
T2 construct: Cytidine deaminase from human liver was isolated; from tissue; host or cells: human liver
T2 sequence (P32320 whole entry): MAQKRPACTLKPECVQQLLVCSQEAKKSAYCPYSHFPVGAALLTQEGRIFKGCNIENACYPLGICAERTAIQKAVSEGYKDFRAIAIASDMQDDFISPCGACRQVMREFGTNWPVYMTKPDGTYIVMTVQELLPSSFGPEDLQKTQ

T1 sequence (P56389 whole entry): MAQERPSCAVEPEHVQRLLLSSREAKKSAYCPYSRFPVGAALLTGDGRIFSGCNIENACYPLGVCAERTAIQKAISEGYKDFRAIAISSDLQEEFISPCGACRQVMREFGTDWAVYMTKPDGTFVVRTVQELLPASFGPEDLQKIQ

Ki [1] | Ki [2] | SMILES | inhibition of adenosine deaminase (in words) (adenosine deaminase)
 |  | OC[C@H]1O[C@@H](n2cnc3c2N=CNC[C@H]3O)C[C@@H]1O [2'-deoxycoformycin] | very potent adenosine deaminase inhibitor
0.2 µM |  | O=C1NCCCCN1C1C[C@H](O)[C@@H](CO)O1 (stereo partly drawn) [Compound 3d, 1-(2-deoxy-D-erythro-pentofuranosyl)-perhydro-1,3-diazepin-2-one] | 
10 µM | 10 µM | O=C1CCNC(=O)N([C@@H]2O[C@H](CO)[C@@H](O)[C@H]2O)C1 [Compound 8b, 3-(β-D-Ribofuranosyl)-5-keto-perhydro-1,3-diazepin-2-one] | 
